# Results as given in article PMC7029871, “Development and validation of a sensitive LC-MS/MS method for the quantitation of IMB-YH-4py5-2H, an antituberculosis candidate, and its application to the pharmacokinetic study” (PLoS ONE, 2020).
# Entries after “also recorded” stand apart in the source; their conditions may differ. Read-outs that look alike come from different tables or passages of the source.
# Key:
# Rat AMs NR8383 cells = experiment: In vitro uptake study in alveolar macrophages; type: cell-based; conditions: 24 h-exposure in 2 μg/mL
# Description: Rat AMs NR8383 cells (American Type Culture Collection, Manassas, VA, USA) were grown overnight at 37°C with 5% CO2 in Ham’s F12K medium (Gibco, Grand island, NY, USA) containing 20% fetal bovine serum (FBS, Gibco, Thornton, Australia) in 24-well culture plates (4 × 10^5 cells/well in 1 mL culture medium). After 24 h-exposure to IMB-YH-4py5-2H (2 μg/mL), the culture medium and the subsequent three washes were pooled and processed further for the determination of the extracellular drug concentrations. The cells were then extracted with 0.1 M NaOH to collect the intracellular drug for the LC-MS/MS analysis. All experiments were done in triplicate. The intracellular/extracellular drug concentration ratios were then calculated.
# CYP2A6 = target: T1, CYP2A6 (Homo sapiens, UniProt P11509); experiment: Metabolism by recombinant human P450 enzyme; type: in vitro ADME; conditions: recombinant CYP2A6 0.05 nmol/mL, 1 μM, 30 min
# T1 construct: purchased Corning (Woburn, MA, USA)
# T1 sequence (P11509 1-494): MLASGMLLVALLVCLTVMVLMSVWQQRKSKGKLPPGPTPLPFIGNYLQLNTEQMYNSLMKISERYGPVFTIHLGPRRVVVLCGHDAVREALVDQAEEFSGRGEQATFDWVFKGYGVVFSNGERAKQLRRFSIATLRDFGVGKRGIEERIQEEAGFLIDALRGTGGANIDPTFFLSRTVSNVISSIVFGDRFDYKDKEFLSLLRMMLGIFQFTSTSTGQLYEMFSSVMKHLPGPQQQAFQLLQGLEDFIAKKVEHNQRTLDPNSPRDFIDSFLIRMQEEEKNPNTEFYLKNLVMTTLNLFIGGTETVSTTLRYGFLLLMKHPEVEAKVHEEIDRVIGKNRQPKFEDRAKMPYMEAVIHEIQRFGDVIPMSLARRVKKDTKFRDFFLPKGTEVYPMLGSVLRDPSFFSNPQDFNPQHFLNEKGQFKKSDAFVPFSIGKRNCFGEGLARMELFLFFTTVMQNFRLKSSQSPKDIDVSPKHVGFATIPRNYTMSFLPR
# Description: (§1) In addition, to characterize the enzymes that may be involved in microsomal metabolism, IMB-YH-4py5-2H was incubated at 37°C for 30 min with different recombinant human P450 enzymes, i.e., CYP1A2, CYP2A6, CYP2B6, CYP2C8, CYP2C9, CYP2C19, CYP2D6, CYP2E1, CYP3A4 and CYP3A5. The incubation system included CYP isoenzyme at a final concentration of 0.05 nmol/mL, 100 mM PBS (pH 7.4) or 100 mmol/L Tris buffer (pH 7.5, Tris buffer was used in the CYP2C9 and CYP2A6 reaction systems and PBS was used for the other enzymes), NADPH regeneration system, and 1 μM IMB-YH-4py5-2H.
# (§2) After incubation, the samples were processed as described in “Sample processing”. All experiments were performed in triplicate. The concentration of IMB-YH-4py5-2H was measured using LC-MS/MS analysis.
# CYP2B6 = target: T2, CYP2B6 (Homo sapiens, UniProt P20813); experiment: Metabolism by recombinant human P450 enzyme; type: in vitro ADME; conditions: recombinant CYP2B6 0.05 nmol/mL, 1 μM, 30 min
# T2 construct: purchased Corning (Woburn, MA, USA)
# T2 sequence (P20813 1-491): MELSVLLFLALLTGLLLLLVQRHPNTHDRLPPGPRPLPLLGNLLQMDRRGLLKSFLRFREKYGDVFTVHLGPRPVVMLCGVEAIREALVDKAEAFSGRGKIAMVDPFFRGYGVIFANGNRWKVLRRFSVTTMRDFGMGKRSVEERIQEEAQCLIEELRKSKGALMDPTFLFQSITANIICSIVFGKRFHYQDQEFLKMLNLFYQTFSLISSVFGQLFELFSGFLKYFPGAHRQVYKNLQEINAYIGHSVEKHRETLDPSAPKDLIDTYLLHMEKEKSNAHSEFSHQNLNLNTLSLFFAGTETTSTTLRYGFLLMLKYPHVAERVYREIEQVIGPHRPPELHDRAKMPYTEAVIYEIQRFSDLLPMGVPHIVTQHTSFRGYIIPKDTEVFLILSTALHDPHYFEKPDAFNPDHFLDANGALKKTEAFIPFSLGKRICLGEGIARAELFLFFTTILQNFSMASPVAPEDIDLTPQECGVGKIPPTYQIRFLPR
# Description: as §1, §2
# [1] = compared with YH-8; method and reference not given; cited from earlier work
# [2] = Pharmacokinetic study in rats, single oral dose; type: in vivo, Sprague-Dawley rats; conditions: for AUC(0-inf) / CL/F / MRT / Tmax / AUC(0-t) / Vd/F / half-life / Cmax: both sexes, Sprague-Dawley; for AUC(0-inf) / CL/F / MRT / Tmax / AUC(0-t) / Vd/F / half-life: plasma, rat; for AUC(0-t): read-out: AUC0-60; for Vd/F: read-out: Vz/F; for half-life: po; for Cmax: rat plasma
# Description: A total of 18 adult SD rats were randomly divided into three dosing groups (half male and half female). IMB-YH-4py5-2H suspensions were freshly prepared in 1% (w/v) sodium carboxymethyl cellulose (CMC-Na). The rats were fasted with free access to water for 12 h prior to the oral administration of IMB-YH-4py5-2H at doses of 50, 100 or 200 mg/kg and fasted for another 2 h after administration. Blood samples of 0.2 mL were collected via the post-orbital venous plexus vein at 0.033, 0.083, 0.167, 0.333, 0.5, 0.75, 1, 1.5, 2, 4, 6, 8, 12, 24, 36, 48, and 60 h post dosing into a heparinized tube. Plasma samples, obtained by centrifuging blood at 2300 × g for 15 min at 4°C, were stored at −20°C until analysis.
# The pharmacokinetic parameters of IMB-YH-4py5-2H were calculated by WinNonlin (Version 6.1, Pharsight Corp., Mountain View, CA, USA) using a non-compartmental model. Data were expressed as the mean ± standard deviation (S.D.).
compound,measurement,setting,value
"CN(C)C(=O)/C=C/C(=O)c1ccc(-c2ccncc2)cc1.Cl [IMB-YH-4py5-2H, (E)-N,N-dimethyl-4-oxo-4-(4-(pyridin-4-yl)phenyl)but-2-enamide hydrochloride]",intracellular to extracellular concentration ratio (I/E ratio),Rat AMs NR8383 cells,133.4±12.5
same,metabolism by CYP isozyme,CYP2A6,high metabolic activity
same,metabolism by CYP isozyme,CYP2B6,high metabolic activity
same,water solubility,[1],better water solubility; also recorded: improved water solubility
same,AUC(0-inf),[2]; single oral dose 50 mg/kg,1440 ± 370 ng·h/mL
same,CL/F,[2]; single oral dose 50 mg/kg,613 mL/min/kg
same,MRT,[2]; single oral dose 50 mg/kg,7.63 ± 1.58 h
same,Tmax,[2]; single oral dose 50 mg/kg,0.28 ± 0.08 h
same,AUC(0-t),[2]; single oral dose 50 mg/kg,1400 ± 367 ng·h/mL
same,Vd/F,[2]; single oral dose 50 mg/kg,379 ± 100 L/kg
same,AUC(0-inf),[2]; single oral dose 100 mg/kg,2850 ± 430 ng·h/mL
same,CL/F,[2]; single oral dose 100 mg/kg,610 mL/min/kg
same,MRT,[2]; single oral dose 100 mg/kg,7.7 ± 1.43 h
same,Tmax,[2]; single oral dose 100 mg/kg,0.44 ± 0.09 h
same,AUC(0-t),[2]; single oral dose 100 mg/kg,2840 ± 425 ng·h/mL
same,Vd/F,[2]; single oral dose 100 mg/kg,336 ± 74 L/kg
same,AUC(0-inf),[2]; single oral dose 200 mg/kg,5730 ± 664 ng·h/mL
same,CL/F,[2]; single oral dose 200 mg/kg,589 mL/min/kg
same,MRT,[2]; single oral dose 200 mg/kg,10.7 ± 0.85 h
same,Tmax,[2]; single oral dose 200 mg/kg,0.33 h
same,AUC(0-t),[2]; single oral dose 200 mg/kg,5710 ± 659 ng·h/mL
same,Vd/F,[2]; single oral dose 200 mg/kg,394 ± 58 L/kg
same,half-life,"[2]; 50 mg/kg, single oral dose 50 mg/kg, read-out: t1/2 (converted)",7.24 ± 1.61 h
same,half-life,"[2]; 100 mg/kg, single oral dose 100 mg/kg, read-out: t1/2 (converted)",6.37 ± 0.93 h
same,half-life,"[2]; 200 mg/kg, oral, all three dosing groups (50, 100, 200 mg/kg), read-out: half-life (converted)",~7 h
same,half-life,"[2]; 200 mg/kg, single oral dose 200 mg/kg, read-out: t1/2 (converted)",7.71 ± 0.41 h
same,Cmax,[2]; single oral dose 50 mg/kg,367 ± 23 ng/mL
same,Cmax,[2]; single oral dose 100 mg/kg,586 ± 31.2 ng/mL
same,Cmax,[2]; single oral dose 200 mg/kg,1300 ± 194 ng/mL
same,AUC relative to that of YH-8,"[2]; following the same oral dose, YH-8 data ref 20",approximately 2.5 fold
